Columns and labels:
[1] = target: T1, androgen receptor (AR) splicing variant AR-v7 (Homo sapiens, UniProt P10275); assay: Degradation activity on androgen receptor splicing variant AR-v7 in 22RV1 cells (ELISA); format: cell-based; details: AR-v7 degradation in 22RV1 cells, 48 h, class symbols
T1 construct: The degradation activity of compounds on AR-v7 in 22RV1 cells; host or cells: 22RV1 cells
T1 sequence (P10275 1-644 isoform P10275-3): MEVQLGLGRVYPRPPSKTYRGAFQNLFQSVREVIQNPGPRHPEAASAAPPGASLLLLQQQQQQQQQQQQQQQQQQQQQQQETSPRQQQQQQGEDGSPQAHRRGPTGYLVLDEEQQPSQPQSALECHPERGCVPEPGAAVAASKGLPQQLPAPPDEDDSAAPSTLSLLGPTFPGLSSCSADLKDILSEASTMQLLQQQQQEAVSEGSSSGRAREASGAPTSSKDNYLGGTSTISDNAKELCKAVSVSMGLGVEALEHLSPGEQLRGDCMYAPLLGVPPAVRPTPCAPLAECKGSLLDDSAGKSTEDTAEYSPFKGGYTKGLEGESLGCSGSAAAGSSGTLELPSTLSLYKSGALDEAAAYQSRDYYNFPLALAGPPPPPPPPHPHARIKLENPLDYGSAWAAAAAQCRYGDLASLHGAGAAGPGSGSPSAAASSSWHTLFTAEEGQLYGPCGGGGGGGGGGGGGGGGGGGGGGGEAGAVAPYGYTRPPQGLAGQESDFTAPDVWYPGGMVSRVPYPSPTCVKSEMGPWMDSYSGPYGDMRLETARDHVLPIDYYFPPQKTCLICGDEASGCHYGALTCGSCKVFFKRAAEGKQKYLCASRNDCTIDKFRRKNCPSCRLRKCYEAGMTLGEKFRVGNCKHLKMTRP

22RV1 cells = details: Homo sapiens, 22Rv1, 144 h, read-out: 22RV1 IC50 (nM), 22RV1 cells, 6 days culture, CCK-8, OD 450 nm

SMILES	DC50 [1] [nM]	IC50 (22RV1 cells) [nM]
CC(C)(c1ccc(Oc2ccnc(N3CC4(COC4)C3)n2)cc1)c1ccc(O[C@H]2C[C@H](Nc3ccc4c(c3)C(=O)N(C3CCC(=O)NC3=O)C4=O)C2)cc1 (stereo partly shown) [Example 244, 5-((1r,3r)-3-(4-(2-(4-(4-((2-(2-oxa-6-azaspiro[3.3]heptane-6-yl)pyrimidin-4-yl)oxy)phenyl)propan-2-yl)phenoxy)cyclobutyl)amino)-2-(2,6-dioxopiperidin-3-yl)isoindolin-1,3-dione]	< 10	6
CNc1nccc(COc2ccc(C(C)(C)c3ccc(O[C@H]4C[C@H](Nc5ccc6c(c5)C(=O)N(C5CCC(=O)NC5=O)C6=O)C4)cc3)cc2)n1 (stereo partly shown) [Example 395]	< 10	10
CC(C)(c1ccc(OCc2ccnc(N3CCC[C@H](O)C3)n2)cc1)c1ccc(O[C@H]2C[C@@H](Nc3ccc4c(c3)C(=O)N(C3CCC(=O)NC3=O)C4=O)C2)cc1 (stereo partly shown) [Example 399]	< 10	16
CC(C)(c1ccc(Oc2ccc(CN3CC(F)C3)nn2)cc1)c1ccc(O[C@H]2C[C@H](Nc3ccc4c(c3)C(=O)N(C3CCC(=O)NC3=O)C4=O)C2)cc1 (stereo partly shown) [Example 478]	< 10	6
Cc1nnc(-c2cnnc(Oc3ccc(C(C)(C)c4ccc(O[C@H]5C[C@H](Nc6ccc7c(c6)C(=O)N(C6CCC(=O)NC6=O)C7=O)C5)cc4)cc3)c2)o1 (stereo partly shown) [Example 218]	< 10	6
CC(C)(c1ccc(OCc2ccnc(-n3cnnc3)n2)cc1)c1ccc(O[C@H]2C[C@@H](Nc3ccc4c(c3)C(=O)N(C3CCC(=O)NC3=O)C4=O)C2)cc1 (stereo partly shown) [Example 461]	< 10	11
CC(C)(c1ccc(OCc2ccnc(N3CC4(COC4)C3)n2)cc1)c1ccc(O[C@H]2C[C@@H](Nc3ccc4c(c3)CN(C3CCC(=O)NC3=O)C4=O)C2)cc1 (stereo partly shown) [Example 91, 3-(5-(((1s,3s)-3-(4-(2-(4-((2-(2-oxa-6-azaspiro[3.3]heptane-6-yl)pyrimidin-4-yl)methoxy)phenyl)propan-2-yl)phenoxy)cyclobutyl)amino)-1-oxoisoindolin-2-yl)piperidin-2,6-dione]	< 10	2
CC(C)(c1ccc(OCc2ccnc(C(=O)C3CC3)n2)cc1)c1ccc(O[C@H]2C[C@H](Nc3ccc4c(c3)C(=O)N(C3CCC(=O)NC3=O)C4=O)C2)cc1 (stereo partly drawn) [Example 115, 5-(((trans)-3-(4-(2-(4-((2-(cyclopropanecarbonyl)pyrimidin-4-yl)methoxy)phenyl)propan-2-yl)phenoxy)cyclobutyl)amino)-2-(2,6-dioxopiperidin-3-yl)isoindolin-1,3-dione]	< 10	5
CC(Oc1ccc(C(C)(C)c2ccc(O[C@H]3C[C@H](Nc4ccc5c(c4)C(=O)N(C4CCC(=O)NC4=O)C5=O)C3)cc2)cc1)c1ncnc(N2CC3(COC3)C2)c1F (stereo partly shown) [Example 280]	< 10	7
CC(=O)c1nccc(COc2ccc(C(C)(C)c3ccc(OCCNc4ccc5c(c4)C(=O)N(C4CCC(=O)NC4=O)C5=O)cc3)cc2)n1 (stereo not shown) [Example 109, 5-((2-(4-(2-(4-((2-acetylpyrimidin-4-yl)methoxy)phenyl)propan-2-yl)phenoxy)ethyl)amino)-2-(2,6-dioxopiperidin-3-yl) isoindolin-1,3-dione]	< 10	9
CC(C)(c1ccc(OCc2ccnc(N3CC4(COC4)C3)n2)c(F)c1)c1ccc(O[C@H]2C[C@@H](Nc3ccc4c(c3)C(=O)N(C3CCC(=O)NC3=O)C4=O)C2)c(F)c1 (stereo partly shown) [Example 366, 5-(((1s,3s)-3-(4-(2-(4-((2-(2-oxa-6-azaspiro[3.3]heptane-6-yl)pyrimidin-4-yl)methoxy)-3-fluorophenyl)isopropan-2-yl)-2-fluorophenoxy)cyclobutyl)amino)-2-(2,6-dioxopiperidin-3-yl)isoindolin-1,3-dione]	< 10	3
CC(=O)c1ncc(Oc2ccc(C(C)(C)c3ccc(O[C@H]4C[C@@H](Nc5ccc6c(c5)C(=O)N(C5CCC(=O)NC5=O)C6=O)C4)cc3)cc2)cn1 (stereo partly drawn) [Example 128, 5-(((cis)-3-(4-(2-(4-((2-acetylpyrimidin-5-yl)oxy)phenyl)propan-2-yl)phenoxy)cyclobutyl)amino)-2-(2,6-dioxopiperidin-3-yl)isoindolin-1,3-dione]	11 to 100	7
CC(C)(c1ccc(Oc2cnc(-n3nccn3)cn2)cc1)c1ccc(O[C@H]2C[C@H](Nc3ccc4c(c3)C(=O)N(C3CCC(=O)NC3=O)C4=O)C2)cc1 (stereo partly shown) [Example 583]	11 to 100	10
CC(C)(c1ccc(OCCCNc2ccc3c(c2)C(=O)N(C2CCC(=O)NC2=O)C3=O)cc1)c1ccc(OCc2ccnc(NC3CC3)n2)cc1 (stereo not shown) [Example 444, 5-((3-(4-(2-(4-((2-(cyclopropylamino)pyrimidin-4-yl)methoxy)phenyl)propan-2-yl)phenoxy)propyl)amino)-2-(2,6-dioxopiperidin-3-yl)isoindolin-1,3-dione]	11 to 100	62
CN(C)C1CN(c2nccc(COc3ccc(C(C)(C)c4ccc(O[C@H]5C[C@@H](Nc6ccc7c(c6)C(=O)N(C6CCC(=O)NC6=O)C7=O)C5)cc4)cc3)n2)C1 (stereo partly shown) [Example 400]	< 10	10
CC(C)(c1ccc(OCCCNc2ccc3c(c2)C(=O)N(C2CCC(=O)NC2=O)C3=O)cc1)c1ccc(OCc2ccnc(N3CCOCC3)n2)cc1 (stereo not shown) [Example 71, 2-(2,6-dioxopiperidin-3-yl)-5-((3-(4-(2-(4-((2-morpholinepyrimidin-4-yl)methoxy)phenyl)propan-2-yl)phenoxy)propyl)amino)isoindolin-1,3-dione]	11 to 100	35
CC(=O)c1nccc(COc2ccc(C(C)(C)c3ccc(OCCCNc4ccc5c(c4)C(=O)N(C4CCC(=O)NC4=O)C5=O)cc3)cc2)n1 (stereo not shown) [Example 343, 5-((3-(4-(2-(4-((2-acetylpyrimidin-4-yl)methoxy)phenyl)isopropan-2-yl)phenoxy)propyl)amino)-2-(2,6-dioxopiperidin-3-yl)isoindolin-1,3-dione]	11 to 100	19
CC(C)(O)c1ccnc(Oc2ccc(C(C)(C)c3ccc(O[C@H]4C[C@H](Nc5ccc6c(c5)C(=O)N(C5CCC(=O)NC5=O)C6=O)C4)cc3)cc2)n1 (stereo partly shown) [Example 161]	< 10	10
CC(=O)c1nccc(Oc2ccc(C(C)(C)c3ccc(O[C@H]4C[C@H](Nc5ccc6c(c5)C(=O)N(C5CCC(=O)NC5=O)C6=O)C4)cc3)cc2)n1 (stereo partly shown) [Example 246]	< 10	5
CC(C)(c1ccc(Oc2ccc(N3CC(N4CC(F)C4)C3)nn2)cc1)c1ccc(O[C@H]2C[C@H](Nc3ccc4c(c3)C(=O)N(C3CCC(=O)NC3=O)C4=O)C2)cc1 (stereo partly shown) [Example 258]	101 to 1000	8
CSc1nccc(COc2ccc(C(C)(C)c3ccc(OCCCNc4ccc5c(c4)C(=O)N(C4CCC(=O)NC4=O)C5=O)cc3)cc2)n1 (stereo not shown) [Example 66]	11 to 100	70
CC(O)c1cnc(Oc2ccc(C(C)(C)c3ccc(O[C@H]4C[C@H](Nc5ccc6c(c5)C(=O)N(C5CCC(=O)NC5=O)C6=O)C4)cc3)cc2)cn1 (stereo partly shown) [Example 595]	< 10	4
CC(C)(c1ccc(OCCCNc2ccc3c(c2)C(=O)N(C2CCC(=O)NC2=O)C3=O)cc1)c1ccc(OCc2nc(C(N)=O)no2)cc1 (stereo not shown) [Example 143, 5-((4-(2-(4-(3-((2-(2,6-dioxopiperidin-3-yl)-1,3-dioxoisoindolin-5-yl)amino)propoxy)phenyl)propan-2-yl)phenoxy)methyl)-1,2,4-oxadiazol-3-carbonylamine]	11 to 100	160
Cc1nnc(-c2ncc(Oc3ccc(C4(c5ccc(O[C@H]6C[C@H](Nc7ccc8c(c7)C(=O)N(C7CCC(=O)NC7=O)C8=O)C6)cc5)CC4)cc3)cn2)o1 (stereo partly shown) [Example 379, 2-(2,6-dioxopiperidin-3-yl)-5-(((1r,3r)-3-(4-(1-(4-((2-(5-methyl-1,3,4-oxadiazol-2-yl)pyrimidin-5-yl)oxy)phenyl)cyclopropyl)phenoxy)cyclobutyl)amino)isoindolin-1,3-dione]	11 to 100	17
CC(=O)c1nccc(COc2ccc(C3(c4ccc(OCCCNc5ccc6c(c5)C(=O)N(C5CCC(=O)NC5=O)C6=O)cc4)CCC3)cc2)n1 (stereo not shown) [Example 351, 5-((3-(4-(1-(4-((2-acetylpyrimidin-4-yl)methoxy)phenyl)cyclobutyl)phenoxy)propyl)amino)-2-(2,6-dioxopiperidin-3-yl)isoindolin-1,3-dione]	< 10	7
CN(C)C(=O)c1noc(COc2ccc(C(C)(C)c3ccc(OCCCNc4cccc5c4C(=O)N(C4CCC(=O)NC4=O)C5=O)cc3)cc2)n1 (stereo not shown) [Example 181, 5-((4-(2-(4-(3-((2-(2,6-dioxopiperidin-3-yl)-1,3-dioxoisoindolin-4-yl)amino)propoxy)phenyl)propan-2-yl)phenoxy)methyl)-N,N-dimethyl-1,2,4-oxadiazol-3-carbonylamine]	1000 to 5000	140
